Experimental findings from BindingDB's records for doi:10.1021/jm0010466 (2001) are described below.

This assay can be described thus: Binding affinity towards 23-nt RNA oligonucleotide from the 5'-untranslated region of the cholestery ester transfer protein (CETP).

Where a SMILES comes first, the peptide text is derived from it.

Turning to `CC(C)C[C@H](NC(=O)[C@H](CCCCN)NC(=O)[C@H](Cc1ccc(O)cc1)NC(=O)[C@@H](N)CCCCN)C(=O)N[C@@H](Cc1ccc(O)cc1)C(=O)N[C@@H](CCCCN)C(=O)N[C@@H](CS)C(N)=O` (H-KYKLYKC-NH2), the affinity, expressed as Kd, was 32 µM.

A word on the Kd: it is the free concentration of one partner at which half of the binding sites on the other are occupied at equilibrium, for simple one-to-one binding. Read a low Kd as tighter binding.
